In patent US9586963B2 (GENFIT, priority 2011, dated 2017):
Where a name gives a salt, the structure may show the parent alone.

The compounds below were run against T1, Rev-Erb alpha (Homo sapiens, UniProt P20393) (assay: M2H (mammalian two-hybrid) cellular activation assay of Rev-Erb alpha). Conditions: M2H assay, HEK293 cells, Gal4-Rev-Erb alpha / VP16-NCoR, luciferase reporter.
T1 sequence (P20393 284-614 limits assumed): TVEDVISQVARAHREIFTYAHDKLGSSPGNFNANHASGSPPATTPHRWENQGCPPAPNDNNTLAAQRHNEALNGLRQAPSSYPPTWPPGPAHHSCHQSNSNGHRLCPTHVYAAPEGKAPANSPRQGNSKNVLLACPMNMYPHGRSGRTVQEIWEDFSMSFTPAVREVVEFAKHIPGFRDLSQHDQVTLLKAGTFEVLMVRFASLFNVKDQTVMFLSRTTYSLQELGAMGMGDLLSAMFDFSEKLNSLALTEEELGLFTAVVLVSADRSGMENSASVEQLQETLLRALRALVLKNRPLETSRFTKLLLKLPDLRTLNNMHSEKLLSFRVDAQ
Assay type: cell-based
Description: In this system, Rev-Erb alpha or Rev-Erb beta is expressed as a fusion to the Gal4 DNA-binding domain and the cofactor NCoR is expressed as a fusion to the activation domain of the Herpes Simplex Virus tegument protein VP16. These fusion proteins were included in plasmids at a concentration of 1 μg/μL. The pBS-SK+ vector was added to the preparation to adjust the DNA quantity to a fixed value for each condition.
The transfection mix (Jet-PEI protocol, Polyplus transfection) comprised: • 3 mL of Jet PEI Mix (180 μL Jet-Pei and NaCl at 150 mM) and • 3 mL of the DNA Mix or of the DNA Mix control (wherein the Gal4-Rev-Erb alpha plasmid was replaced by a pGal4phi plasmid).
DNA Mix comprised 1.2 mL of DNA and 1.8 mL of NaCl at 150 mM with, in a T225 flask: • 90 ng of Gal4-Rev-Erb alpha, or 90 ng of Gal4-Rev-Erb beta, • 4500 ng of VP16-NCoR, • 27000 ng of Gal4-RE and • 13410 ng of pBS-SK+. Cells
HEK293 cells were cultured in DMEM (Invitrogen 41965) comprising 10% FBS, P/S, 1% glutamine, 1% pyruvate (Invitrogen 11360) and 1% amino acids (Invitrogen 11140). Cells were then batch co-transfected with plasmid vectors (described in the table above) using as Jet-PEI as reagent (Polyplus) following the protocol specified below.
The 6 mL-transfection mix was transferred in a T225 flask. HEK293 cells were then added at a concentration of 12 Millions of cells for 54 mL of medium (DMEM comprising 10% FBS and 1% P/S). Cells incubated over-night at 37° C. and under 5% CO2.
This cell-based assay is performed using 384-well Greiner white plates (Reference 781080). After the incubation, cells were rinsed with PBS, trypsinized, centrifuged and resuspended in free-serum DMEM without phenol red (Invitrogen 31053). Cells were counted and adjusted to 0.5 Million per mL and plated at a concentration of 10,000 cells in 20 μL per well. They were incubated a minimum of 4 hours at 37° C. under 5% CO2. Cells were treated with 20 μL of the compound to analyze (concentration of 2× diluted in DMEM without FBS containing a maximum of 1% DMSO) and incubated over-night (18 hours, 37° C. and 5% CO2). Each compound has been tested at 6 different concentrations to depict a dose-effect allowing the measure of biochemical parameters such as EC50 and TOP activation (%).
Cells were incubated 30 minutes with 40 μL/well of Steady Glow (Promega) and luminescence was read with TECAN Genios Pro (100 ms/w). Four experiments were carried out for each compound.
Each compound has been tested at 6 different concentrations to depict a dose-effect allowing the measure of biochemical parameters such as EC50 and TOP activation (%).
The mammalian two-hybrid system (M2H) assay consists herein in studying the ability of compounds according to the invention to activate Rev-Erbalpha in cells and thus modulate the interaction with its corepressor. The interaction of the two proteins is assessed with the help of the Luciferase reporter gene. HEK293 cells were transfected with two gene constructions: Gal4-RE VP16-NCoR and Gal4-Rev-Erbalpha or with Gal4-RE, sVP16-NCoR and Gal4-Rev-Erb beta.
The ability of compounds according to the invention of activating Rev-Erbalpha alpha or Rev-Erb beta was assessed in the described cell-based assay. EC50 and TOP activation (%) were measured.

EC50 | Structure (SMILES)
1000 to 6000 nM | COc1ccc(-c2cccc(Oc3ccc4nnc(Cl)n4n3)c2)cc1 [Cpd.3-7, 6-(4′-methoxy-biphenyl-3-yloxy)-3-chloro-[1,2,4]triazolo[4,3-b]pyridazine]
100 to 1000 nM | Fc1ccc(Oc2ccc3nnc(Cl)n3n2)c(-c2ccccc2F)c1 [Cpd.4-121, 3-chloro-6-(2′,5-difluorobiphenyl-2-yloxy)-[1,2,4]triazolo[4,3-b]pyridazine]
1000 to 6000 nM | Clc1nnc2ccc(Oc3cc(CNC4CCCC4)ccc3-c3ccccc3)nn12 [Cpd.4-179, 3-chloro-6-(4-cyclopentylaminomethylbiphenyl-2-yloxy)-[1,2,4]triazolo[4,3-b]pyridazine]
1000 to 6000 nM | CS(=O)(=O)N1CCN(Cc2ccc(-c3ccccc3)c(Oc3ccc4nnc(Cl)n4n3)c2)CC1 [Cpd.4-182, 3-chloro-6-(4-(4-methanesulfonylpiperazin-1-ylmethyl)biphenyl-2-yloxy)-[1,2,4]triazolo[4,3-b]pyridazine]
> 6000 nM | Fc1ccc(Oc2ccc3nnc(Cl)n3n2)c(-c2cccnc2)c1 [Cpd.4-107, 3-chloro-6-(4-fluoro-2-(pyridin-3-yl)phenoxy)-[1,2,4]triazolo[4,3-b]pyridazine]
100 to 1000 nM | COc1cccc(-c2cc(F)ccc2Oc2ccc3nnc(Cl)n3n2)c1 [Cpd.4-76, 3-chloro-6-(5-fluoro-3′ methoxy-biphenyl-2-yloxy)-[1,2,4]triazolo[4,3-b]pyridazine]
100 to 1000 nM | Clc1nnc2ccc(Oc3ccccc3-c3ccc4scnc4c3)nn12 [Cpd.4-110, 6-(2-(benzo[d]thiazol-5-yl)phenoxy)-3-chloro-[1,2,4]triazolo[4,3-b]pyridazine]
1000 to 6000 nM | COc1ncc(-c2ccc(C(F)(F)F)cc2Oc2nn3c(Cl)nnc3cc2C)c(OC)n1 [Cpd.5-51, 3-chloro-6-(2-(2,4-dimethoxypyrimidin-5-yl)-5-(trifluoromethyl)phenoxy)-7-methyl-[1,2,4]triazolo[4,3-b]pyridazine]
1000 to 6000 nM | COc1ncc(-c2ccc(C(F)(F)F)cc2Oc2cc(C)c3nnc(Cl)n3n2)c(OC)n1 [Cpd.5-50, 3-chloro-6-(2-(2,4-dimethoxypyrimidin-5-yl)-5-(trifluoromethyl)phenoxy)-8-methyl-[1,2,4]triazolo[4,3-b]pyridazine]
100 to 1000 nM | Cc1nc(-c2ccc(-c3ccccc3)c(Oc3ccc4nnc(Cl)n4n3)c2)no1 [Cpd.4-197, 3-chloro-6-(5-(5-methyl-1,2,4-oxadiazol-3-yl)-2-(phenyl)phenoxy)-[1,2,4]triazolo[4,3-b]pyridazine]
100 to 1000 nM | Cc1cccc(-c2cc(F)ccc2Oc2ccc3nnc(C(F)(F)F)n3n2)c1 [Cpd.4-136, 3-(trifluoromethyl)-6-(5-fluoro-3′-methylbiphenyl-2-yloxy)-[1,2,4]triazolo[4,3-b]pyridazine]
> 6000 nM | CCCn1cc(-c2ccc(C(F)(F)F)cc2Oc2ccc3nnc(Cl)n3n2)ccc1=O [Cpd.4-88, 5-(2-(3-chloro-[1,2,4]triazolo[4,3-b]pyridazin-6-yloxy)-4-(trifluoromethyl)phenyl)-1-propylpyridin-2(1H)-one]
1000 to 6000 nM | FC(F)(F)c1ccc(-c2ccccn2)c(Oc2ccc3nnc(Cl)n3n2)c1 [Cpd.4-97, 3-chloro-6-(2-(pyridin-2-yl)-5-(trifluoromethyl)phenoxy)-[1,2,4]triazolo[4,3-b]pyridazine hydrochloride]
> 6000 nM | Oc1cncc(-c2ccc(C(F)(F)F)cc2Oc2ccc3nnc(Cl)n3n2)c1 [Cpd.4-96, 5-(2-(3-chloro-[1,2,4]triazolo[4,3-b]pyridazin-6-yloxy)-4-(trifluoromethyl)phenyl)pyridin-3-ol]
100 to 1000 nM | FC(F)(F)c1nnc2ccc(Oc3ccccc3-c3ccccc3)nn12 [Cpd.4-2, 6-(biphenyl-2-yloxy)-3-(trifluoromethyl)-[1,2,4]triazolo[4,3-b]pyridazine]
1000 to 6000 nM | NC(=O)c1cccc(-c2ccc(C(F)(F)F)cc2Oc2ccc3nnc(Cl)n3n2)c1 [Cpd.4-72, 3-chloro-6-(4-trifluoromethyl-3′-aminocarbonyl-biphenyl-2-yloxy)-[1,2,4]triazolo[4,3-b]pyridazine]
100 to 1000 nM | Cc1ccc(-c2ccc(C(F)(F)F)cc2Oc2cc(C)c3nnc(Cl)n3n2)cn1 [Cpd.5-16, 3-chloro-8-methyl-6-(2-(6-methylpyridin-3-yl)-5-(trifluoromethyl)phenoxy)-[1,2,4]triazolo[4,3-b]pyridazine]
1000 to 6000 nM | CCc1ncncc1-c1ccc(C(F)(F)F)cc1Oc1nn2c(Cl)nnc2cc1C [Cpd.5-52, 3-chloro-6-(2-(4-ethylpyrimidin-5-yl)-5-(trifluoromethyl)phenoxy)-7-methyl-[1,2,4]triazolo[4,3-b]pyridazine]
1000 to 6000 nM | COc1ncc(C)cc1-c1ccc(C(F)(F)F)cc1Oc1nn2c(Cl)nnc2cc1C [Cpd.5-28, 3-chloro-7-methyl-6-((2-(2-methoxy-5-methylpyridin-3-yl))-5-(trifluoromethyl)phenoxy)-[1,2,4]triazolo[4,3-b]pyridazine]
> 6000 nM | Cc1nc(-c2ccc(-c3cccnc3)c(Oc3ccc4nnc(Cl)n4n3)c2)no1 [Cpd.4-199, 3-chloro-6-(5-(5-methyl-1,2,4-oxadiazol-3-yl)-2-(pyridin-3-yl)phenoxy)-[1,2,4]triazolo[4,3-b]pyridazine]
1000 to 6000 nM | Oc1cccc(-c2cc(F)c(F)cc2Oc2ccc3nnc(Cl)n3n2)c1 [Cpd.4-153, 3-chloro-6-(4,5-difluoro-3′-hydroxybiphenyl-2-yloxy)-[1,2,4]triazolo[4,3-b]pyridazine]
100 to 1000 nM | Cc1cc2nnc(Cl)n2nc1Oc1cc(C(F)(F)F)ccc1-c1cccnc1C [Cpd.5-20, 3-chloro-7-methyl-6-(2-(2-methylpyridin-3-yl)-5-(trifluoromethyl)phenoxy)-[1,2,4]triazolo[4,3-b]pyridazine]
100 to 1000 nM | N#Cc1ccc(-c2ccccc2)c(Oc2ccc3nnc(Cl)n3n2)c1 [Cpd.4-169, 3-chloro-6-(4-cyanobiphenyl-2-yloxy)-[1,2,4]triazolo[4,3-b]pyridazine]
1000 to 6000 nM | FC(F)(F)c1ccc(-c2cscn2)c(Oc2ccc3nnc(Cl)n3n2)c1 [Cpd.4-106, 3-chloro-6-(2-(thiazol-4-yl)-5-(trifluoromethyl)phenoxy)-[1,2,4]triazolo[4,3-b]pyridazine]
100 to 1000 nM | Cc1cccc(-c2ccccc2Oc2ccc3nnc(C(F)(F)F)n3n2)c1 [Cpd.4-133, 3-(trifluoromethyl)-6-(3′-methylbiphenyl-2-yloxy)-[1,2,4]triazolo[4,3-b]pyridazine]
100 to 1000 nM | CCc1c(Oc2cc(C(F)(F)F)ccc2-c2ccccc2)nn2c(Cl)nnc2c1CC [Cpd.5-12, 3-chloro-7,8-diethyl-6-(4-trifluoromethyl-biphenyl-2-yloxy)-[1,2,4]triazolo[4,3-b]pyridazine]
100 to 1000 nM | FC(F)(F)c1ccc(-c2cncnc2)c(Oc2nn3c(Cl)nnc3c3ccccc23)c1 [Cpd.5-22, 3-chloro-6-(2-(pyrimidin-5-yl)-5-(trifluoromethyl)phenoxy)-[1,2,4]triazolo[3,4-a]phthalazine]

Structure (SMILES) | EC50
FC(F)(F)c1cccc(Oc2ccc3nnc(Cl)n3n2)c1-c1ccccc1 | < 100 nM
CN(Cc1ccccc1)Cc1ccc(Oc2ccc3nnc(Cl)n3n2)c(-c2ccccc2)c1 | 100 to 1000 nM

Same assay, conditions: M2H assay, HEK293 cells; relative to DMSO; at the tested dose; read-out: TOP activation

Emax | Structure (SMILES)
> 130% | Fc1ccc(Oc2ccc3nnc(Cl)n3n2)c(-c2cccnc2)c1 [Cpd.4-107, 3-chloro-6-(4-fluoro-2-(pyridin-3-yl)phenoxy)-[1,2,4]triazolo[4,3-b]pyridazine]
> 130% | CCCn1cc(-c2ccc(C(F)(F)F)cc2Oc2ccc3nnc(Cl)n3n2)ccc1=O [Cpd.4-88, 5-(2-(3-chloro-[1,2,4]triazolo[4,3-b]pyridazin-6-yloxy)-4-(trifluoromethyl)phenyl)-1-propylpyridin-2(1H)-one]
> 130% | Oc1cncc(-c2ccc(C(F)(F)F)cc2Oc2ccc3nnc(Cl)n3n2)c1 [Cpd.4-96, 5-(2-(3-chloro-[1,2,4]triazolo[4,3-b]pyridazin-6-yloxy)-4-(trifluoromethyl)phenyl)pyridin-3-ol]
> 130% | Cc1nc(-c2ccc(-c3cccnc3)c(Oc3ccc4nnc(Cl)n4n3)c2)no1 [Cpd.4-199, 3-chloro-6-(5-(5-methyl-1,2,4-oxadiazol-3-yl)-2-(pyridin-3-yl)phenoxy)-[1,2,4]triazolo[4,3-b]pyridazine]
